From publication PMC6486640, “The ATPase mechanism of UvrA2 reveals the distinct roles of proximal and distal ATPase sites in nucleotide excision repair” (Nucleic Acids Research, 2019)

Legend:
[1] = target: T1, T. maritima UvrA Δ117-399 (Thermotoga maritima, UniProt Q9WYV0, DEL117-399); test: X-ray crystal structure, […] Å; format: binding; settings: ADP in proximal and distal sites
T1 construct: internal deletion of 117-399; preparation in Supplementary Data

UvrA2 = target: T2, UvrA2 (Geobacillus stearothermophilus, UniProt A0ACH1EC70); test: global fit of pre-steady state Pi release (MDCC-PBP stopped-flow), KinTek Explorer; format: biochemical; settings: no DNA; pH 7.4, 5 mM MgCl2, 40°C; distal (high-affinity) sites; best-fit model value; proximal sites are a weaker second site
T2 construct: gene uvrA; pET28a-NHis-UvrA, N-terminal His tag, expressed in E. coli Rosetta (DE3) pLysS; heat-treated to remove ADP; homodimer with proximal and distal ATPase sites per monomer
Excerpt: global fit of pre-steady state Pi release (MDCC-PBP stopped-flow), KinTek Explorer on UvrA2

[2] = target: UvrA2 (UvrA dimer, wild type) (Geobacillus stearothermophilus, UniProt A0ACH1EC70 1-952); test: fluorescence anisotropy; 0-250 nM UvrA2, 7.5 nM DNA; Equilibrium fluorescence anisotropy, 7.5 nM DNA, 0-250 nM UvrA2; anisotropy buffer and temperature not in the material (other assays of the paper: 20 mM Tris-HCl pH 7.4, 0.15 M NaCl, 5% glycerol, 5 mM MgCl2, 5 mM DTT, 40 C); settings: protein: recombinant, tags: N-terminal His (pET28a-NHis-UvrA), chain copies: 2, blunt

T1 sequence (Q9WYV0 other isoform, or with tags, fused parts or gaps DEL117-399): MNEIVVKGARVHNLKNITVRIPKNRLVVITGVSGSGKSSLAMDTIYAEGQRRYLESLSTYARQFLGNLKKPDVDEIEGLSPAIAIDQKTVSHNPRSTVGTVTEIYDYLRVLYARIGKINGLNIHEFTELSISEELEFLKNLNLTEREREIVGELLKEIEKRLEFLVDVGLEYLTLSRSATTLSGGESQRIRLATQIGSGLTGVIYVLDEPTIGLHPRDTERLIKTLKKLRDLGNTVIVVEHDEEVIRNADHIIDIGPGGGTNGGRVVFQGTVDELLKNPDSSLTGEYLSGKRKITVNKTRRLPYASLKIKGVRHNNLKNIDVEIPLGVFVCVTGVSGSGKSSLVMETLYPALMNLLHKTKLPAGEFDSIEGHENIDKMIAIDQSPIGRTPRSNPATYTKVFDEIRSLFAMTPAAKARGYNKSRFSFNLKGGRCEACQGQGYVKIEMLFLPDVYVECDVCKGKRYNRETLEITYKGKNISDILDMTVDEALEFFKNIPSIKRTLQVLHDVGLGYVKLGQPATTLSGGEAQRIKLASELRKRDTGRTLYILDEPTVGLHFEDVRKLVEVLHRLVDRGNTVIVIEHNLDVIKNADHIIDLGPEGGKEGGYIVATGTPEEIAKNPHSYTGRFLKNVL

Nc1ncnc2c1ncn2[C@@H]1O[C@H](COP(=O)(O)OP(=O)(O)O)[C@@H](O)[C@H]1O [ADP]
X-ray crystal structure, 2.0 Å [1]: the fully ADP-bound structure reported here further supports this hypothesis

Nc1ncnc2c1ncn2[C@@H]1O[C@H](COP(=O)(O)OP(=O)(O)OP(=O)(O)O)[C@@H](O)[C@H]1O [ATP]
Best-fit values (UvrA2): 1 µM

B1: fluorescein lesion DNA, 50 bp duplex (dsDNA)
DNA 1: CCTGTCAGCTCGTTCTGAGTTCCAGTAGTAATGTGGCCGTAAGTAATCCA
DNA 2: TGGATTACTTACGGCCACATTACTACTGGAACTCAGAACGAGCTGACAGG
modifications: internal fluorescein-dT (iFluorT) at position 26 of strand 1, acts as lesion
Kd ([2]; label: internal fluorescein (strand 1, T26)): 12 ± 2 nM

B2: native (undamaged) DNA, 50 bp duplex (dsDNA)
DNA 1: TGGATTACTTACGGCCACATTACTACTGGAACTCAGAACGAGCTGACAGG
DNA 2: CCTGTCAGCTCGTTCTGAGTTCCAGTAGTAATGTGGCCGTAAGTAATCCA
Kd ([2]; label: 5' 6-FAM on strand 1 (template)): 45 ± 7 nM
